The target of the test is T1, Squalene synthase (Rattus norvegicus, UniProt Q02769).
T1 sequence (Q02769 whole entry): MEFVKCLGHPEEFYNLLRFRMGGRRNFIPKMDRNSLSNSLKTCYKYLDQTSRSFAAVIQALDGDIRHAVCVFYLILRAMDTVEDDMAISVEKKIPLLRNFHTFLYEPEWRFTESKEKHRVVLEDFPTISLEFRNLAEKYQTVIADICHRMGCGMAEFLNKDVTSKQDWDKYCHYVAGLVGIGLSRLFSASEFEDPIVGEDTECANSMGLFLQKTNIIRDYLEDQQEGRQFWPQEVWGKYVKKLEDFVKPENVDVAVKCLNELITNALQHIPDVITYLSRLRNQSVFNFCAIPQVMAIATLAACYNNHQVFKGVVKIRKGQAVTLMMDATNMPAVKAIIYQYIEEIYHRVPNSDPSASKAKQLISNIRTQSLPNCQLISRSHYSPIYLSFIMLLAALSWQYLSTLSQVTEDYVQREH
As to the kind of experiment: Tested for the squalene synthetase inhibitory activity in rat liver microsomal assay. The format is microsomes.

In the case of `CC(C)=CCC/C(C)=C/CC/C(C)=C/CNCc1ccccc1.O=P(O)(O)OP(=O)(O)O`, the IC50 stood at 10 nM. As to `CC(C)=CCC/C(C)=C/CC/C(C)=C/CN(CCP(=O)(O)C(C)(C)P(=O)(O)O)Cc1ccccc1`, the IC50 is 20 nM. This IC50 lies about 2-fold higher than the previous one.

The values above are taken from ChEMBL document CHEMBL1126815, “Synthesis and squalene synthetase inhibitory activity of tripotassium 1-methyl-1-[(N-benzyl-N-farnesyl)aminoethylphosphinato]ethylphosphonate as a tethered analog of N-benzyl-N-farnesylamine-inorganic pyrophosphate ion pair” (Bioorg Med Chem Lett, 1993).
